Results on 5 molecules are retold here after patent US6008240A, “2-(1H-4(5)-imidazoyl) cyclopropyl derivatives” (Gliatech, Inc., priority 1997, dated 1999).

In one test the test system is H3. Particulars: cited from earlier work.
Another test concerns H3 receptor. As to conditions: cited from earlier work.
The next test addresses T1, Histamine H3 Receptor (Rattus norvegicus, UniProt Q9QYN8).
T1 construct: from tissue; host or cells: rat cerebral cortex membranes
As to the kind of experiment: In Vitro Histamine H3 Receptor Binding Analysis ([3H]-Nα-methylhistamine, rat cortical membranes). As to conditions: rat cortical membranes; 0.8-1.2 nM [3H]-Nα-methylhistamine; 40 minutes at 25° C.; pH 7.4; read-out: H3 Receptor Ki. As for the experimental part:
Histamine H3 receptor affinity was determined in rat cortical membranes using the H3 selective agonist ligand, [^3 H]-N^α -methylhistamine (78.9 Ci/mmole, DuPont NEN Research Products, Boston, Mass.) according to the method of West et al., (1990) Mol. Pharmacol. 38: 610-613 with modifications. Briefly, animals were sacrificed by decapitation and the cerebral cortex was rapidly removed. Rat cortices were mechanically homogenized with an Omni 1000 motor driven homogenizer in 10 volumes (wt/vol) of Krebs-Ringers Hepes buffer (pH 7.4) containing the following protease inhibitors; EDTA (10 mmol), PMSF (0.1 mM), chymostatin (0.2 mg/50 mL) and leupeptin (0.2 mg/50 mL). The homogenate was centrifuged in a Sorvall at ~40,000 x g for 30 min. The pellet was resuspended by mechanical homogenization in 25 mL water and lysed on ice for 30 min. The homogenate was recentrifuged and the membrane lysis was repeated. The membranes were recentrifuged and the final pellet was resuspended in 14 volumes of water to give approximately 200 μg protein/100 μl final concentration. The suspension was stored at -80° C. prior to use. Protein concentrations were determined by Coomassie Plus Protein Assay (Pierce, Rockford, Ill.).
Nonspecific binding (NSB) was accounted for by the inclusion of thioperamide (10 μM). Samples were incubated for 40 minutes at 25° C. The samples were filtered through glass fiber strips, pre-washed with 0.3% polyethyleneimine, using a Brandell cell harvester. The filters were rapidly washed three times with 4 ml of 25 mM Tris buffer containing 145 mM NaCl (pH 7.4, 4° C.). Filters were transferred to polyethylene minivials and counted in 3.5 ml of scintillation fluid (Ecolume, ICN Biomedicals, Inc.). Using this procedure, the non-specific binding was less than 10% of the total binding and the binding to the glass fiber filters was negligible. Saturation and competition experiments were analyzed with the ReceptorFit saturation and competition curve fitting programs (Lundon Software, Inc., Cleveland, Ohio).

The conditions of test [1]: intraventricular; rabbits; cited from earlier work.
For test [2] the following is noted: intraventricular; saline and pentobarbital-treated rats; cited from earlier work.
For test [3] the following is noted: dose-dependent; species not printed in this sentence (preceding sentence: cat); cited from earlier work.

Each structure is given as a SMILES string.

T1 sequence (Q9QYN8 whole entry): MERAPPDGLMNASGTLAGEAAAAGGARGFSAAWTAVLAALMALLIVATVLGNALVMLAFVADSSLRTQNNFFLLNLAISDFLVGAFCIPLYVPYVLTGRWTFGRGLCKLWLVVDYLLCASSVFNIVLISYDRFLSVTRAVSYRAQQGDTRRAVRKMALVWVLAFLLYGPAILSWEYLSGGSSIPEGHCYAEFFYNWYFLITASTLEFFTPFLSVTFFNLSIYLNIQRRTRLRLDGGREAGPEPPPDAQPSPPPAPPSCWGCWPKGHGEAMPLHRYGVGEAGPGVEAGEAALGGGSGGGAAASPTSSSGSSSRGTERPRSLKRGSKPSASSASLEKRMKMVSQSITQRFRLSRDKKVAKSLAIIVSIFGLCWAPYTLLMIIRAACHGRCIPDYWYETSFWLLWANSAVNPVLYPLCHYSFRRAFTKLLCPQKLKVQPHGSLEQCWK

Take `COc1ccc(CC(=NO)C(=O)NCCc2c[nH]cn2)cc1Br`: the “H3 antagonism on guinea pig ileum” value in the test on H3 was “H3 antagonist on guinea pig ileum”. In the test with H3 receptor, the “activity in an H3 receptor assay” value is reported as “active in an H3 receptor assay”.
Usually Ki stands for a dissociation constant, usually derived from enzyme kinetics or from competition with a known ligand. Take `N[C@@H](Cc1ccc(Br)cc1)C(=O)N[C@@H]1C[C@H]1c1c[nH]cn1` [Example 45]: the inhibition constant (Ki) on Histamine H3 Receptor was determined as 9.4 ± 1.1 nM.
In the case of `CC(C)(C)CCC#C[C@H]1C[C@@H]1c1cnc[nH]1` [Example 52, (1S,2S)-trans-4-(2-(5,5-Dimethylhex-1-ynyl)cyclopropyl)imidazole], the Ki on Histamine H3 Receptor is 5.3 ± 0.5 nM.
In the case of `NCCc1c[nH]cn1` [histamine], the “arousal EEG pattern” value in test [1] is recorded as “induces the appearances of an arousal EEG pattern”. Further, in test [2], the “spontaneous locomotor activity, grooming and exploratory behavior” value is “increased spontaneous locomotor activity, grooming and exploratory behavior”.
For `S=C(NC1CCCCC1)N1CCC(c2cnc[nH]2)CC1` [thioperamide], the wakefulness entry in test [3] is recorded as “enhanced wakefulness in a dose-dependent fashion”.
